# Results reported in PubChem BioAssay (NCI).
#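 Grown in 96-well plates, cells were treated for 48 hours with each compound at five concentrations. Insufficient inhibition: endpoint recorded as highest concentration tested. Here, GI50 denotes the concentration required for 50% inhibition of growth. TGI marks complete inhibition of growth.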
# Experiments:
# Test in all cases: growth of human tumour cells (NCI), 48 h
# 786-0 renal = tested on: 786-0 renal
# A498 renal = tested on: A498 renal
# A549 NSCLC = tested on: A549 NSCLC
# ACHN renal = tested on: ACHN renal
# BT-549 breast = tested on: BT-549 breast
# CAKI-1 renal = tested on: CAKI-1 renal
# CCRF-CEM leukemia = tested on: CCRF-CEM leukemia
# COLO 205 colon = tested on: COLO 205 colon
# DU-145 prostate = tested on: DU-145 prostate
# EKVX NSCLC = tested on: EKVX NSCLC
# HCC-2998 colon = tested on: HCC-2998 colon
# HCT-116 colon = tested on: HCT-116 colon
# HCT-15 colon = tested on: HCT-15 colon
# HL-60(TB) leukemia = tested on: HL-60(TB) leukemia
# HOP-62 NSCLC = tested on: HOP-62 NSCLC
# HOP-92 NSCLC = tested on: HOP-92 NSCLC
# HS 578T breast = tested on: HS 578T breast
# HT29 colon = tested on: HT29 colon
# IGROV1 ovarian = tested on: IGROV1 ovarian
# K-562 leukemia = tested on: K-562 leukemia
# KM12 colon = tested on: KM12 colon
# LOX IMVI melanoma = tested on: LOX IMVI melanoma
# MALME-3M melanoma = tested on: MALME-3M melanoma
# MCF7 breast = tested on: MCF7 breast
# MDA-MB-231 breast = tested on: MDA-MB-231 breast
# MDA-MB-435 = tested on: MDA-MB-435
# MOLT-4 leukemia = tested on: MOLT-4 leukemia
# NCI-H226 lung = tested on: NCI-H226 lung
# NCI-H23 lung = tested on: NCI-H23 lung
# NCI-H460 lung = tested on: NCI-H460 lung
# NCI-H522 lung = tested on: NCI-H522 lung
# NCI/ADR-RES ovarian = tested on: NCI/ADR-RES ovarian
# OVCAR-3 ovarian = tested on: OVCAR-3 ovarian
# OVCAR-4 ovarian = tested on: OVCAR-4 ovarian
# OVCAR-5 ovarian = tested on: OVCAR-5 ovarian
# OVCAR-8 ovarian = tested on: OVCAR-8 ovarian
# PC-3 prostate = tested on: PC-3 prostate
# RPMI-8226 leukemia = tested on: RPMI-8226 leukemia
# RXF 393 renal = tested on: RXF 393 renal
# SF-268 CNS = tested on: SF-268 CNS
# SF-295 CNS = tested on: SF-295 CNS
# SF-539 CNS = tested on: SF-539 CNS
# SK-MEL-2 melanoma = tested on: SK-MEL-2 melanoma
# SK-MEL-28 melanoma = tested on: SK-MEL-28 melanoma
# SK-MEL-5 melanoma = tested on: SK-MEL-5 melanoma
# SK-OV-3 ovarian = tested on: SK-OV-3 ovarian
# SN12C renal = tested on: SN12C renal
# SNB-19 CNS = tested on: SNB-19 CNS
# SNB-75 CNS = tested on: SNB-75 CNS
# SR leukemia = tested on: SR leukemia
# SW-620 colon = tested on: SW-620 colon
# T-47D breast = tested on: T-47D breast
# TK-10 renal = tested on: TK-10 renal
# U251 CNS = tested on: U251 CNS
# UACC-257 melanoma = tested on: UACC-257 melanoma
# UACC-62 melanoma = tested on: UACC-62 melanoma
# UO-31 renal = tested on: UO-31 renal
compound,measurement,setting,value
CC/C(=N\Nc1nc2ccccc2n1C)c1ccccn1,GI50,786-0 renal,211 nM
same,TGI,786-0 renal,1520 nM
same,GI50,A498 renal,153 nM
same,TGI,A498 renal,837 nM
same,GI50,A549 NSCLC,103 nM
same,TGI,A549 NSCLC,11400 nM
same,GI50,ACHN renal,< 16 nM
same,TGI,ACHN renal,6280 nM
same,GI50,BT-549 breast,243 nM
same,TGI,BT-549 breast,12800 nM
same,GI50,CAKI-1 renal,113 nM
same,TGI,CAKI-1 renal,1980 nM
same,GI50,CCRF-CEM leukemia,29.4 nM
same,TGI,CCRF-CEM leukemia,> 36000 nM
same,GI50,COLO 205 colon,< 10 nM
same,TGI,COLO 205 colon,2940 nM
same,GI50,DU-145 prostate,127 nM
same,TGI,DU-145 prostate,12700 nM
same,GI50,EKVX NSCLC,36.9 nM
same,TGI,EKVX NSCLC,7470 nM
same,GI50,HCC-2998 colon,314 nM
same,TGI,HCC-2998 colon,7230 nM
same,GI50,HCT-116 colon,< 10 nM
same,TGI,HCT-116 colon,11800 nM
same,GI50,HCT-15 colon,14.1 nM
same,TGI,HCT-15 colon,12900 nM
same,GI50,HL-60(TB) leukemia,25.2 nM
same,TGI,HL-60(TB) leukemia,319 nM
same,GI50,HOP-62 NSCLC,175 nM
same,TGI,HOP-62 NSCLC,3340 nM
same,GI50,HOP-92 NSCLC,184 nM
same,TGI,HOP-92 NSCLC,4820 nM
same,GI50,HS 578T breast,923 nM
same,TGI,HS 578T breast,12700 nM
same,GI50,HT29 colon,< 26.9 nM
same,TGI,HT29 colon,18000 nM
same,GI50,IGROV1 ovarian,29.4 nM
same,TGI,IGROV1 ovarian,7760 nM
same,GI50,K-562 leukemia,10.2 nM
same,TGI,K-562 leukemia,> 100000 nM
same,GI50,KM12 colon,190 nM
same,TGI,KM12 colon,11300 nM
same,GI50,LOX IMVI melanoma,118 nM
same,TGI,LOX IMVI melanoma,5320 nM
same,GI50,MALME-3M melanoma,127 nM
same,TGI,MALME-3M melanoma,10300 nM
same,GI50,MCF7 breast,17.9 nM
same,TGI,MCF7 breast,13900 nM
same,GI50,MDA-MB-231 breast,140 nM
same,TGI,MDA-MB-231 breast,11800 nM
same,GI50,MDA-MB-435,224 nM
same,TGI,MDA-MB-435,12700 nM
same,GI50,MOLT-4 leukemia,< 17.4 nM
same,TGI,MOLT-4 leukemia,7470 nM
same,GI50,NCI-H226 lung,117 nM
same,TGI,NCI-H226 lung,1050 nM
same,GI50,NCI-H23 lung,45.2 nM
same,TGI,NCI-H23 lung,17600 nM
same,GI50,NCI-H460 lung,114 nM
same,TGI,NCI-H460 lung,1820 nM
same,GI50,NCI-H522 lung,39.2 nM
same,TGI,NCI-H522 lung,2330 nM
same,GI50,NCI/ADR-RES ovarian,38.2 nM
same,TGI,NCI/ADR-RES ovarian,4900 nM
same,GI50,OVCAR-3 ovarian,< 10 nM
same,TGI,OVCAR-3 ovarian,10900 nM
same,GI50,OVCAR-4 ovarian,< 18.5 nM
same,TGI,OVCAR-4 ovarian,4680 nM
same,GI50,OVCAR-5 ovarian,156 nM
same,TGI,OVCAR-5 ovarian,15600 nM
same,GI50,OVCAR-8 ovarian,92.9 nM
same,TGI,OVCAR-8 ovarian,14000 nM
same,GI50,PC-3 prostate,32.7 nM
same,TGI,PC-3 prostate,13800 nM
same,GI50,RPMI-8226 leukemia,33 nM
same,TGI,RPMI-8226 leukemia,6290 nM
same,GI50,RXF 393 renal,193 nM
same,TGI,RXF 393 renal,1410 nM
same,GI50,SF-268 CNS,194 nM
same,TGI,SF-268 CNS,11100 nM
same,GI50,SF-295 CNS,170 nM
same,TGI,SF-295 CNS,1280 nM
same,GI50,SF-539 CNS,182 nM
same,TGI,SF-539 CNS,1620 nM
same,GI50,SK-MEL-2 melanoma,589 nM
same,TGI,SK-MEL-2 melanoma,14900 nM
same,GI50,SK-MEL-28 melanoma,214 nM
same,TGI,SK-MEL-28 melanoma,13500 nM
same,GI50,SK-MEL-5 melanoma,174 nM
same,TGI,SK-MEL-5 melanoma,1390 nM
same,GI50,SK-OV-3 ovarian,64 nM
same,TGI,SK-OV-3 ovarian,1580 nM
same,GI50,SN12C renal,128 nM
same,TGI,SN12C renal,12700 nM
same,GI50,SNB-19 CNS,281 nM
same,TGI,SNB-19 CNS,14400 nM
same,GI50,SNB-75 CNS,478 nM
same,TGI,SNB-75 CNS,8840 nM
same,GI50,SR leukemia,42.8 nM
same,TGI,SR leukemia,12400 nM
same,GI50,SW-620 colon,39.3 nM
same,TGI,SW-620 colon,15000 nM
same,GI50,T-47D breast,< 10 nM
same,TGI,T-47D breast,4590 nM
same,GI50,TK-10 renal,500 nM
same,TGI,TK-10 renal,12300 nM
same,GI50,U251 CNS,86.3 nM
same,TGI,U251 CNS,11000 nM
same,GI50,UACC-257 melanoma,73.5 nM
same,TGI,UACC-257 melanoma,2640 nM
same,GI50,UACC-62 melanoma,142 nM
same,TGI,UACC-62 melanoma,839 nM
same,GI50,UO-31 renal,76.1 nM
same,TGI,UO-31 renal,1160 nM
